Experimental data as given in US11939294B1 (priority 2023, dated 2024).

Tested on: multidrug-resistant (MDR) strains of Mycobacterium tuberculosis
Experiment: microbe, parasite or virus in culture
Type: cell-based
Details: 192 h, read-out: MIC (μg/mL) MDR-TB, MDR-TB: resistant at least to isoniazid and rifampicin, REMA, 8 days incubation at 37° C.

**Q.** How did the MIC turn out when Cc1cc(C)c[n+](CC(=O)c2ccc(F)cc2)c1.[Br-] [Compound 3d, 1-(2-(4-Fluorophenyl)-2-oxoethyl)-3,5-dimethylpyridin-1-ium bromide] was run?
**A.** ~8 µg/mL
